Results on 24 compounds are retold here after PubChem BioAssay AID328 (DTP/NCI, 2004).

For the assay, the system named is BDF1 mice, P388 leukemia ip, median survival T/C. Nature of the assay: NCI In Vivo Anticancer Drug Screen. Data for tumor model P388 Leukemia (intraperitoneal) in B6D2F1 (BDF1) mice. The settings on record: endpoint: median survival time, higher = longer survival. An outline of the steps:
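In tumour-bearing mice, survival after compound treatment is set against the vehicle group and given as a quotient.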

Where [1] appears, read: dose: 12.5 mg/kg/injection, schedule: Q01DX009 (ip), vehicle: saline with Tween-80.
Setting [2] is: dose: 25.0 mg/kg/injection, schedule: Q01DX009 (ip), vehicle: saline with Tween-80.
[3] abbreviates: dose: 25.0 mg/kg/injection, schedule: Q04DX003 (ip), vehicle: saline with Tween-80.
Where [4] appears, read: dose: 50.0 mg/kg/injection, schedule: Q01DX009 (ip), vehicle: saline with Tween-80.
[5] abbreviates: dose: 50.0 mg/kg/injection, schedule: Q04DX003 (ip), vehicle: saline with Tween-80.
Where [6] appears, read: dose: 100.0 mg/kg/injection, schedule: Q04DX003 (ip), vehicle: saline with Tween-80.
The mark [7] stands for this setting: dose: 75.0 mg/kg/injection, schedule: Q01DX009 (ip), vehicle: saline with Tween-80.
[8] abbreviates: dose: 100.0 mg/kg/injection, schedule: Q01DX009 (ip), vehicle: saline with Tween-80.
The mark [9] stands for this setting: dose: 150.0 mg/kg/injection, schedule: Q01DX009 (ip), vehicle: saline with Tween-80.
The mark [10] stands for this setting: dose: 200.0 mg/kg/injection, schedule: Q01DX009 (ip), vehicle: saline with Tween-80.
[11] abbreviates: dose: 200.0 mg/kg/injection, schedule: Q04DX003 (ip), vehicle: saline with Tween-80.
Setting [12] is: dose: 400.0 mg/kg/injection, schedule: Q01DX009 (ip), vehicle: saline with Tween-80.
[13] abbreviates: dose: 400.0 mg/kg/injection, schedule: Q04DX003 (ip), vehicle: saline with Tween-80.
[14] abbreviates: dose: 50.0 mg/kg/injection, schedule: Q01DX009 (ip), vehicle: Klucel (hydroxypropylcellulose) (HPC).
The mark [15] stands for this setting: dose: 100.0 mg/kg/injection, schedule: Q01DX009 (ip), vehicle: Klucel (hydroxypropylcellulose) (HPC).
Setting [16] is: dose: 200.0 mg/kg/injection, schedule: Q01DX009 (ip), vehicle: Klucel (hydroxypropylcellulose) (HPC).
Where [17] appears, read: dose: 50.0 mg/kg/injection, schedule: Q01DX009 (ip), vehicle: saline.
The mark [18] stands for this setting: dose: 100.0 mg/kg/injection, schedule: Q01DX009 (ip), vehicle: saline.
Where [19] appears, read: dose: 200.0 mg/kg/injection, schedule: Q01DX009 (ip), vehicle: saline.

Several values for one entry are separate records, joined by “and”; a condition that tells them apart may be missing. Identical values can stand only once. Toxic doses and inconclusive results are not listed.

For `OC(Cc1ccc2ccccc2n1)C(Cl)(Cl)Cl` (stereo not drawn), the T/C was 95 % of control (dose: 3.12 mg/kg/injection, schedule: Q01DX009 (ip), vehicle: saline with Tween-80); 100 % of control (dose: 6.25 mg/kg/injection, schedule: Q01DX009 (ip), vehicle: saline with Tween-80); 100 % of control under setting [1]; 100 % of control (dose: 12.5 mg/kg/injection, schedule: Q04DX003 (ip), vehicle: saline with Tween-80); 92 % of control under setting [2]; 105 % of control under setting [3]. The T/C by setting is: under setting [4], 90 % of control; under setting [5], 100 % of control; under setting [6], 91 % of control.

For the compound `Cc1ccc(-c2nc3cc(Cl)ccc3c(=O)o2)cc1`, the T/C is 110 % of control under setting [4]; 104 % of control under setting [7]; 100 % of control under setting [8]; 109 % of control under setting [6]; 109 % of control under setting [9]; 120 % of control under setting [10]. Also, the T/C is 109 % of control under setting [11] and 95 % of control (dose: 300.0 mg/kg/injection, schedule: Q01DX009 (ip), vehicle: saline with Tween-80).

For the compound `COC(=O)C1(C)CCc2c(ccc3ccccc23)C1=O` (stereo not drawn), the T/C (dose: 100.0 mg/kg/injection, schedule: Q01DX001 (ip), vehicle: other) is 100 % of control; the T/C (dose: 200.0 mg/kg/injection, schedule: Q01DX001 (ip), vehicle: other) was 95 % of control; the T/C (dose: 400.0 mg/kg/injection, schedule: Q01DX001 (ip), vehicle: other) is 113 % of control.

With `CC(C(=O)c1ccccc1)C(Cl)c1ccccc1` (stereo not drawn), the T/C was 95 % of control under setting [4]; 94 % of control under setting [8]; 89 % of control under setting [6]; 86 % of control under setting [10]; 89 % of control under setting [11]; 86 % of control under setting [12]. The T/C under setting [13] is 98 % of control.

As to `CCCCc1c(C)[nH]c(=S)[nH]c1=O`, the T/C was 95 % of control under setting [6], 109 % of control under setting [11] and 95 % of control under setting [13].

In the case of `CC(C)CCS(=O)(=O)OCCCCOS(=O)(=O)CCC(C)C`, the T/C is, setting by setting: under setting [8], 114 % of control; under setting [6], 100 % of control; under setting [10], 109 % of control; under setting [11], 100 % of control; under setting [12], 114 % of control; under setting [13], 104 % of control.

`CCP(=Nc1cc(C(C)(C)C)cc(C(C)(C)C)c1O)(c1ccccc1)c1ccccc1`: the T/C under setting [4] is 96 % of control, the T/C under setting [8] is 91 % of control and the T/C under setting [10] is 89 % of control.

In the case of `O=C1c2ccccc2C(=O)c2c(Nc3ccc(CCO)cc3)ccc(O)c21`, the T/C (dose: 100.0 mg/kg/injection, schedule: Q04DX003 (ip), vehicle: Klucel (hydroxypropylcellulose) (HPC)) was 100 % of control; the T/C (dose: 200.0 mg/kg/injection, schedule: Q04DX003 (ip), vehicle: Klucel (hydroxypropylcellulose) (HPC)) is 100 % of control; the T/C (dose: 400.0 mg/kg/injection, schedule: Q04DX003 (ip), vehicle: Klucel (hydroxypropylcellulose) (HPC)) is 111 % of control.

`CCCCCCCCC(=O)c1c(OC)oc(/C=N/O)cc1=O`: the T/C was 94 % of control (dose: 1.56 mg/kg/injection, schedule: Q01DX009 (ip), vehicle: Klucel (hydroxypropylcellulose) (HPC)); 107 % of control (dose: 3.13 mg/kg/injection, schedule: Q01DX009 (ip), vehicle: Klucel (hydroxypropylcellulose) (HPC)); 97 % of control (dose: 6.25 mg/kg/injection, schedule: Q01DX009 (ip), vehicle: Klucel (hydroxypropylcellulose) (HPC)).

With `CC(C#N)Oc1cccc2ccccc12` (stereo not drawn), the T/C reads like this: (dose: 2.0 mg/kg/injection, schedule: Q01DX009 (ip), vehicle: DMSO) 96 % of control; (dose: 3.0 mg/kg/injection, schedule: Q01DX009 (ip), vehicle: DMSO) 115 % of control; (dose: 4.5 mg/kg/injection, schedule: Q01DX009 (ip), vehicle: DMSO) 110 % of control; (dose: 6.0 mg/kg/injection, schedule: Q01DX009 (ip), vehicle: DMSO) 110 % of control; (dose: 12.0 mg/kg/injection, schedule: Q01DX009 (ip), vehicle: DMSO) 120 % of control; (dose: 12.5 mg/kg/injection, schedule: Q01DX009 (ip), vehicle: DMSO) 88 % of control. Also, the T/C (dose: 25.0 mg/kg/injection, schedule: Q01DX009 (ip), vehicle: DMSO) was 88 % of control and the T/C (dose: 100.0 mg/kg/injection, schedule: Q04DX003 (ip), vehicle: DMSO) is 100 % of control.

`CCCCN(C(C)(C)C(SSSC(c1ccc(Cl)cc1)C(C)(C)N(CCCC)S(C)(=O)=O)c1ccc(Cl)cc1)S(C)(=O)=O` (stereo not drawn): the T/C is 100 % of control under setting [3] and 100 % of control under setting [5].

On to `CC(C)CNC(c1ccc2c(c1)OCO2)C(O)c1ccc2c(c1)OCO2` (stereo not drawn), for which the T/C reads like this: (dose: 100.0 mg/kg/injection, schedule: Q01DX001 (ip), vehicle: saline with Tween-80) 100 % of control; (dose: 200.0 mg/kg/injection, schedule: Q01DX001 (ip), vehicle: saline with Tween-80) 115 % of control; (dose: 400.0 mg/kg/injection, schedule: Q01DX001 (ip), vehicle: saline with Tween-80) 108 % of control.

In the case of `C=CCC1(CCC)C(=O)NC(=O)NC1=O`, the T/C under setting [3] is 91 % of control, the T/C under setting [5] is 91 % of control and the T/C under setting [6] is 95 % of control.

With `N#CC(C#N)c1nc2cccnc2s1`, the T/C runs as follows: under setting [6], 109 % of control; under setting [11], 93 % of control.

In the case of `O=C(/C=C/c1c(Cl)cccc1Cl)c1ccccc1`, the T/C by setting is: under setting [14], 97 % of control; under setting [15], 105 % of control; under setting [16], 97 % of control.

Turning to `CCOc1ccc(NC(=O)C23CC4CC(CC(C4)C2)C3)cc1`, the T/C is 100 % of control under setting [1], 100 % of control under setting [2] and 100 % of control under setting [4].

As to `CCc1cccc2c(NCCCCCCNc3c4ccccc4nc4c(CC)cccc34)c3ccccc3nc12`, the T/C by setting is: (dose: 0.31 mg/kg/injection, schedule: Q01DX009 (ip), vehicle: lactic acid) 108 % of control; (dose: 0.62 mg/kg/injection, schedule: Q01DX009 (ip), vehicle: lactic acid) 103 % of control; (dose: 5.0 mg/kg/injection, schedule: Q01DX009 (ip), vehicle: lactic acid) 173 % of control.

With `CC(C)CNC(=S)N/N=C\C=N/NC(=S)NCC(C)C`, the T/C under setting [7] was 98 % of control and the T/C under setting [9] was 91 % of control.

Consider `O=C(Nc1ccc2c(c1)C(Br)c1ccccc1-2)C(F)(F)F` (stereo not drawn), for which the T/C under setting [14] is 90 % of control, the T/C under setting [15] is 100 % of control and the T/C under setting [16] was 118 % of control.

With `Nc1nc(=O)n(CC(=O)c2ccco2)cc1F`, the T/C under setting [17] was 109 % of control; the T/C under setting [18] was 95 % of control and 100 % of control; the T/C under setting [19] was 118 % of control.

With `CC(=O)n1ccc(=O)[nH]c1=O`, the T/C runs as follows: under setting [4], 102 % of control; under setting [8], 110 % of control; under setting [10], 99 % of control.

With `Cn1c2c(sc1=O)CCC2`, the T/C was 100 % of control (dose: 50.0 mg/kg/injection, schedule: Q04DX003 (ip), vehicle: saline); 87 % of control (dose: 100.0 mg/kg/injection, schedule: Q04DX003 (ip), vehicle: saline); 100 % of control (dose: 200.0 mg/kg/injection, schedule: Q04DX003 (ip), vehicle: saline).

In the case of `CCCCCCCCCCCC(c1ccccc1)[N+](C)(C)Cc1ccccc1` (stereo not drawn), the T/C (dose: 0.25 mg/kg/injection, schedule: Q01DX010 (ip), vehicle: saline) is 100 % of control; the T/C (dose: 0.5 mg/kg/injection, schedule: Q01DX010 (ip), vehicle: saline) is 108 % of control; the T/C (dose: 1.0 mg/kg/injection, schedule: Q01DX010 (ip), vehicle: saline) was 116 % of control; the T/C (dose: 2.0 mg/kg/injection, schedule: Q01DX010 (ip), vehicle: saline) is 108 % of control.

Take `CCc1nnc2ncccn12`: the T/C runs as follows: under setting [17], 97 % of control and 102 % of control and 104 % of control; under setting [18], 104 % of control and 107 % of control; under setting [19], 91 % of control and 100 % of control.
